From PubChem BioAssay (NCI)
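Briefly, cells in 96-well plates were exposed to five compound concentrations for 48 h, and endpoints were estimated by linear interpolation. The concentration for 50% growth inhibition is given as GI50. TGI denotes the concentration required for complete inhibition of growth.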

Key:
Test in all cases: growth of human tumour cells (NCI), 48 h
HT29 colon = tested on: HT29 colon
SK-MEL-28 melanoma = tested on: SK-MEL-28 melanoma
SNB-19 CNS = tested on: SNB-19 CNS
DU-145 prostate = tested on: DU-145 prostate
EKVX NSCLC = tested on: EKVX NSCLC
SF-295 CNS = tested on: SF-295 CNS
UACC-257 melanoma = tested on: UACC-257 melanoma
T-47D breast = tested on: T-47D breast
ACHN renal = tested on: ACHN renal
MALME-3M melanoma = tested on: MALME-3M melanoma

SMILES	TGI (HT29 colon) [µM]	TGI (SK-MEL-28 melanoma) [µM]	TGI (SNB-19 CNS) [µM]	TGI (DU-145 prostate) [µM]	TGI (EKVX NSCLC) [µM]	TGI (SF-295 CNS) [µM]	TGI (UACC-257 melanoma) [µM]	TGI (T-47D breast) [µM]	TGI (ACHN renal) [µM]	GI50 (SNB-19 CNS) [µM]	GI50 (DU-145 prostate) [µM]	GI50 (EKVX NSCLC) [µM]	GI50 (SF-295 CNS) [µM]	GI50 (UACC-257 melanoma) [µM]	GI50 (T-47D breast) [µM]	GI50 (ACHN renal) [µM]	GI50 (SK-MEL-28 melanoma) [µM]	TGI (MALME-3M melanoma) [µM]	GI50 (HT29 colon) [µM]	GI50 (MALME-3M melanoma) [µM]
NC(=O)C(NC=O)c1ccccc1 (stereo not given)	> 100	> 100	> 100	> 100	> 100	> 100	> 100	> 100	> 100	–	–	–	–	–	–	–	–	–	–	–
CC1(C)CC2C=C(C=O)C3(C=O)CC3(C)C2C1 (stereo not given)	4.54	4.19	25.6	17.8	7.5	18.8	7.11	9.02	2.83	–	–	–	–	–	–	–	–	–	–	–
COc1cccc(C2NC(=S)NC(C)=C2C(=O)Nc2ccc(F)c(Cl)c2)c1 (stereo not given)	–	–	> 50	> 50	> 50	> 50	30.7	> 50	> 50	> 50	36.3	22.8	22.4	10.4	> 50	23.8	–	–	–	–
COc1ccc(/C=C/c2cc(N3CCOCC3)c3cc(F)c(F)cc3n2)cc1OC	–	11.6	12.4	11.8	–	14.9	9.89	5.69	12.4	1.11	1.58	–	0.653	2.39	0.449	0.615	1.44	–	–	–
Cc1cc(C(=O)N2CCN(Cc3ccccc3)CC2)c(C)o1	> 100	> 100	> 100	–	> 100	> 100	> 100	–	> 100	–	–	–	–	–	–	–	–	–	–	–
Cc1cc(C)cc(Sc2c([N+](=O)[O-])ncn2C)c1	38.7	30	> 100	–	> 100	70.8	27.7	–	> 100	–	–	–	–	–	–	–	–	25.3	–	–
Cc1cc(NS(=O)(=O)c2ccc(NC(=O)c3cccc4c(Nc5ccc(S(=O)(=O)Nc6cc(C)on6)cc5)c5ccccc5nc34)cc2)no1	> 100	> 100	88.7	–	> 100	> 100	> 100	–	> 100	–	–	–	–	–	–	–	–	> 100	–	–
CN(C)CCN=Cc1c2ccccc2c(=O)n2c1oc1ccccc12	19.4	23.1	21.4	14.5	21.4	9.71	30.5	–	11.2	7.45	2.97	6.76	2.89	14.2	–	2.63	10.5	–	4.56	–
O=c1c2ccccc2c(=O)c2c1cc(Cl)c1[nH]c3c([nH]c12)c(Cl)cc1c(=O)c2ccccc2c(=O)c13	> 100	> 100	> 100	–	> 100	> 100	> 100	–	> 100	–	–	–	–	–	–	–	–	> 100	–	–
N#Cc1cccc(NC(=O)c2oc3ccccc3c2-c2cnn(-c3ccccc3)c2)c1	> 500	> 500	> 500	> 500	> 500	> 500	> 500	–	> 500	192	> 500	> 500	430	> 500	–	> 500	> 500	> 500	> 500	278
N#CCC(=O)N/N=C1\C(=O)N(c2ccc(Cl)cc2)C(=O)C(=O)C1c1nc2ccccc2o1 (stereo not given)	> 100	> 100	> 100	–	> 100	> 100	> 100	–	> 100	–	–	–	–	–	–	–	–	> 100	–	–
O=C(Nc1ccccc1Br)c1cccc([N+](=O)[O-])c1O	> 63.3	59.9	> 100	–	42.9	25.2	10.1	–	> 36.8	–	–	–	–	–	–	–	–	7.38	–	–
CC(=O)OC1C(CCl)OC(N=[N+]=[N-])C(OC(C)=O)C1OC(C)=O (stereo not given)	> 100	> 100	> 100	–	> 100	> 100	> 100	–	> 100	–	–	–	–	–	–	–	–	> 100	–	–
COc1ccc(-c2nn(-c3cccc(NC(=O)Nc4cc(C(F)(F)F)cc(C(F)(F)F)c4)c3)cc2-c2ccncc2)cc1Cl	5.75	4.18	18.2	9.76	–	3.36	3.74	7.17	50	1.62	1.96	–	1.01	1.07	1.07	1.14	1.14	4.2	1.29	1.23
O=C(O)C1c2ccccc2C(C(=O)O)c2ccccc21 (stereo not given)	> 100	–	> 100	–	–	> 100	> 100	–	> 100	–	–	–	–	–	–	–	–	> 100	–	–
CC(C)(C)[Si](C)(C)O/N=C\c1ccc(O[Si](C)(C)C(C)(C)C)cc1	> 100	–	> 100	–	> 100	> 100	> 100	–	> 100	–	–	–	–	–	–	–	–	> 100	–	–
C=C1Oc2nc3ccccc3c(=O)n2C1(C)C	> 100	> 100	> 100	–	> 100	> 10	> 100	–	> 100	–	–	–	–	–	–	–	–	> 100	–	–
COC(=O)Nc1nc2cc3c(cc2s1)OCCO3	> 50	> 50	> 50	> 50	–	> 50	> 50	> 50	> 50	> 50	> 50	–	> 50	> 50	> 50	> 50	> 50	> 50	> 50	> 50
C/C(=C\CCc1ccoc1)CC/C=C(\C)CCCN1CCC(CO)CC1	7.48	4.03	19.4	20.6	–	5.41	5.12	8.92	16.7	4.61	8.41	–	2.28	2.16	2.51	4.32	1.89	3.52	2.26	1.79
